Assay results as given in patent publication US9833497B2, “Human originated EGF domain proteins and use of the same” (CHENGDU SOURCEBIO LIMITED-LIABILITY COMPANY, priority 2013, dated 2017).

How the values were obtained:
Type in all cases: cell-based
[1] = tested on: E. coli DH5α; experiment: Antibacterial activity: MIC and growth curve against E. coli DH5α in 96-well plate; details: minimal inhibitory concentration against E. coli DH5α; 96-well plate, 5×10^5 CFU/mL, 37° C., judged after 8 h
Summary of the method: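 Log-phase DH5α (OD600 about 0.5, 37° C, 185 rpm in LB) was pelleted, resuspended in fresh LB and seeded at 5×10^5 CFU/mL with recombinant protein at 50, 25 and 12.5 μg/mL (two-fold series), in triplicate. Plates were shaken at 175 rpm, 37° C, and OD600 was read every 30 min. MIC was the lowest concentration with no growth.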

[2] = tested on: E. coli BL21; experiment: MIC against Gram-negative bacteria: E. coli BL21; details: for MIC / MIC against E. coli BL21 / MIC (μg/mL) E. coli BL21: E. coli BL21
Summary of the method: (§1)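 Broth microdilution, LB medium, final inoculum 5×10^5 CFU/mL from McFarland 0.5 cultures. Recombinant human EGF domain proteins tested in two-fold steps, n=3. MIC: lowest concentration, no growth.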

[3] = tested on: Pseudomonas aeruginosa; experiment: MIC against Gram-negative bacteria: Pseudomonas aeruginosa
Summary of the method: as §1

[4] = tested on: Klebsiella pneumonia; experiment: MIC against Gram-negative bacteria: Klebsiella pneumonia
Summary of the method: as §1

[5] = tested on: Enterobacter cloacae; experiment: MIC against Gram-negative bacteria: Enterobacter cloacae
Summary of the method: as §1

[6] = tested on: Aeromonas hydrophila; experiment: MIC against Gram-negative bacteria: Aeromonas hydrophila
Summary of the method: as §1

[7] = tested on: Citrobacter diversus; experiment: MIC against Gram-negative bacteria: Citrobacter diversus
Summary of the method: as §1

[8] = tested on: Moraxella catarrhalis; experiment: MIC against Gram-negative bacteria: Moraxella catarrhalis
Summary of the method: as §1

[9] = tested on: Proteus mirabilis; experiment: MIC against Gram-negative bacteria: Proteus mirabilis
Summary of the method: as §1

[10] = tested on: Proteus vulgaris; experiment: MIC against Gram-negative bacteria: Proteus vulgaris
Summary of the method: as §1

[11] = tested on: Serratia marcescens; experiment: MIC against Gram-negative bacteria: Serratia marcescens
Summary of the method: as §1

[12] = P. aeruginosa, 10 h cultivation at 37° C.
[13] = K. pneumonia, 10 h cultivation at 37° C.
[14] = E. cloacae, 10 h cultivation at 37° C.
[15] = A. hydrophila, 10 h cultivation at 37° C.
[16] = C. diversus, 10 h cultivation at 37° C.
[17] = M. catarrhalis, 10 h cultivation at 37° C.
[18] = P. mirabilis, 10 h cultivation at 37° C.
[19] = P. vulgaris, 10 h cultivation at 37° C.
[20] = S. marcescens, 10 h cultivation at 37° C.
[21] = 96-well plate, 5×10^5 CFU/mL, 37° C., 10 h
[22] = Pseudomonas aeruginosa, 96-well plate, 5×10^5 CFU/mL, 37° C., 10 h
[23] = Klebsiella pneumonia, 96-well plate, 5×10^5 CFU/mL, 37° C., 10 h
[24] = Enterobacter cloacae, 96-well plate, 5×10^5 CFU/mL, 37° C., 10 h
[25] = Aeromonas hydrophila, 96-well plate, 5×10^5 CFU/mL, 37° C., 10 h
[26] = Citrobacter diversus, 96-well plate, 5×10^5 CFU/mL, 37° C., 10 h
[27] = Moraxella catarrhalis, 96-well plate, 5×10^5 CFU/mL, 37° C., 10 h
[28] = Proteus mirabilis, 96-well plate, 5×10^5 CFU/mL, 37° C., 10 h
[29] = Proteus vulgaris, 96-well plate, 5×10^5 CFU/mL, 37° C., 10 h
[30] = Serratia marcescens, 96-well plate, 5×10^5 CFU/mL, 37° C., 10 h
[31] = 10 h cultivation at 37° C., 5×10^5 CFU/mL, two-fold serial dilution

PRT942 (LVNLCSRSPCKNKGTCVQKKAESQCLCPSGWAGAYCD; listed as Homo sapiens)
MIC [1]: 25 µg/mL | MIC ([2]; 10 h cultivation at 37° C.): 50 µg/mL | MIC [3, 12]: 12.5 µg/mL | MIC [4, 13]: 50 µg/mL | MIC [5, 14]: 12.5 µg/mL | MIC [6, 15]: 25 µg/mL | MIC [7, 16]: 50 µg/mL | MIC [8, 17]: 12.5 µg/mL | MIC [9, 18]: 50 µg/mL | MIC [10, 19]: 12.5 µg/mL | MIC [11, 20]: 50 µg/mL

PRT1248 (SACYCSATSRCDPQTGACLCHAGWWGRSCN; listed as Homo sapiens)
MIC [1]: 25 µg/mL | MIC against E. coli BL21 [2, 21]: 25 µg/mL | MIC against P. aeruginosa [3, 22]: 25 µg/mL | MIC against K. pneumonia [4, 23]: 25 µg/mL | MIC against E. cloacae [5, 24]: 12.5 µg/mL | MIC against A. hydrophila [6, 25]: 12.5 µg/mL | MIC against C. diversus [7, 26]: 25 µg/mL | MIC against M. catarrhalis [8, 27]: 12.5 µg/mL | MIC against P. mirabilis [9, 28]: 25 µg/mL | MIC against P. vulgaris [10, 29]: 12.5 µg/mL | MIC against S. marcescens [11, 30]: 25 µg/mL

PRT1284 (LVDLCSPDLNPCQHEAQCVGTPDGPRCECMPGYAGDNCS; listed as Homo sapiens)
MIC [1]: 25 µg/mL | MIC against E. coli BL21 [2, 21]: 50 µg/mL | MIC against P. aeruginosa [3, 22]: 25 µg/mL | MIC against K. pneumonia [4, 23]: 12.5 µg/mL | MIC against E. cloacae [5, 24]: 25 µg/mL | MIC against A. hydrophila [6, 25]: 12.5 µg/mL | MIC against C. diversus [7, 26]: 12.5 µg/mL | MIC against M. catarrhalis [8, 27]: 50 µg/mL | MIC against P. mirabilis [9, 28]: 12.5 µg/mL | MIC against P. vulgaris [10, 29]: 25 µg/mL | MIC against S. marcescens [11, 30]: 12.5 µg/mL

PRT246 (DINECTMDSHTCSHHANCFNTQGSFKCKCKQGYKGNGLRCS; listed as Homo sapiens)
MIC [1]: 12.5 µg/mL | MIC (μg/mL) E. coli BL21 ([2]; 10 h cultivation at 37° C., 5×10^5 CFU/mL): 12.5 µg/mL | MIC (μg/mL) P. aeruginosa ([3]; P. aeruginosa, 10 h cultivation at 37° C., 5×10^5 CFU/mL): 12.5 µg/mL | MIC (μg/mL) K. pneumonia ([4]; K. pneumonia, 10 h cultivation at 37° C., 5×10^5 CFU/mL): 12.5 µg/mL | MIC (μg/mL) E. cloacae ([5]; E. cloacae, 10 h cultivation at 37° C., 5×10^5 CFU/mL): 12.5 µg/mL | MIC (μg/mL) A. hydrophila ([6]; A. hydrophila, 10 h cultivation at 37° C., 5×10^5 CFU/mL): 12.5 µg/mL | MIC (μg/mL) C. diversus ([7]; C. diversus, 10 h cultivation at 37° C., 5×10^5 CFU/mL): 12.5 µg/mL | MIC (μg/mL) M. catarrhalis ([8]; M. catarrhalis, 10 h cultivation at 37° C., 5×10^5 CFU/mL): 25 µg/mL | MIC (μg/mL) P. mirabilis ([9]; P. mirabilis, 10 h cultivation at 37° C., 5×10^5 CFU/mL): 12.5 µg/mL | MIC (μg/mL) P. vulgaris ([10]; P. vulgaris, 10 h cultivation at 37° C., 5×10^5 CFU/mL): 25 µg/mL | MIC (μg/mL) S. marcescens ([11]; S. marcescens, 10 h cultivation at 37° C., 5×10^5 CFU/mL): 12.5 µg/mL

PRT126 (IIDRCVPNHCEHGGKCSQTWDSFKCTCDETGYSGATCH; listed as Homo sapiens)
MIC [1]: 12.5 µg/mL | MIC (μg/mL) E. coli BL21 [2, 21]: 50 µg/mL | MIC (μg/mL) P. aeruginosa [3, 22]: 12.5 µg/mL | MIC (μg/mL) K. pneumonia [4, 23]: 50 µg/mL | MIC (μg/mL) E. cloacae [5, 24]: 12.5 µg/mL | MIC (μg/mL) A. hydrophila [6, 25]: 12.5 µg/mL | MIC (μg/mL) C. diversus [7, 26]: 12.5 µg/mL | MIC (μg/mL) M. catarrhalis [8, 27]: 100 µg/mL | MIC (μg/mL) P. mirabilis [9, 28]: 25 µg/mL | MIC (μg/mL) P. vulgaris [10, 29]: 12.5 µg/mL | MIC (μg/mL) S. marcescens [11, 30]: 25 µg/mL

PRT924 (DVDECAMANSNPCEHAGKCVNTDGAFHCECLKGYAGPRCE; listed as Homo sapiens)
MIC [1]: 12.5 µg/mL | MIC ([2]; 10 h cultivation at 37° C.): 25 µg/mL | MIC [3, 12]: 50 µg/mL | MIC [4, 13]: 12.5 µg/mL | MIC [5, 14]: 25 µg/mL | MIC [6, 15]: 50 µg/mL | MIC [7, 16]: 12.5 µg/mL | MIC [8, 17]: 50 µg/mL | MIC [9, 18]: 25 µg/mL | MIC [10, 19]: 12.5 µg/mL | MIC [11, 20]: 50 µg/mL

PRT1103 (DHDECASSPCQNGAVCQDGIDGYSCFCVPGYQGRHCD; listed as Homo sapiens)
MIC [1]: 12.5 µg/mL | MIC E. coli BL21 [2, 31]: 25 µg/mL | MIC P. aeruginosa [3, 31]: 12.5 µg/mL | MIC K. pneumonia [4, 31]: 25 µg/mL | MIC E. cloacae [5, 31]: 50 µg/mL | MIC A. hydrophila [6, 31]: 25 µg/mL | MIC C. diversus [7, 31]: 12.5 µg/mL | MIC M. catarrhalis [8, 31]: 25 µg/mL | MIC P. mirabilis [9, 31]: 50 µg/mL | MIC P. vulgaris [10, 31]: 25 µg/mL | MIC S. marcescens [11, 31]: 12.5 µg/mL
